Assay results reported in patent publication US8633186B2, “Modulation of chemosensory receptors and ligands associated therewith” (Senomyx Inc., priority 2007, dated 2014).

Key:
[1] = system: human panelists (perceived sweetness intensity); test: Sweet flavor and sweet flavor enhancement, human panelists, scaling test; assay type: in vivo; parameters: key: 0-15 line scale; 0 = no sweetness, 15 = 15% sucrose sweetness
Excerpt: Test samples containing experimental compounds were compared to a dose-response curve for perceived sweetness intensity of sweeteners (such as, for example, sucralose, sucrose, fructose and other sweeteners) concentrations to determine equivalent sweetness intensity.
A group of eight or more panelists tasted solutions including sweeteners at various concentrations, as well as the experimental compound both with and without added sweetener. Panelists then rated sweetness intensity of all samples on a structured horizontal line scale, anchored from 0 to 15, where 0 equals no sweetness and 15 equals equivalent sweetness to a 15% sucrose sample. Scores for sweetness intensity were averaged across panelists. Then using the average scores and/or equation of the line for the sweetener dose-response curve, equivalent sweetness concentrations were determined for the samples containing experimental compounds.
Subjects had been previously familiarized with the key attribute taste and were trained to use the 0 to 15 point line scale. Subjects refrained from eating or drinking (except water) for at least 1 hour prior to the test. Subjects ate a cracker and rinsed with water several times to clean the mouth.
Sweetener solutions are provided at a wide range of concentrations such as 100 ppm, 200 ppm, 300 ppm, 400 ppm, and 500 ppm for sucralose, or between 0% and 12% for sucrose or fructose, in order to create a dose-response curve. Samples containing experimental compound were prepared both alone and in a 100 ppm sucralose solution or a 6% sucrose or fructose solution. All samples were made up in low sodium buffer pH 7.1. In order to aid dispersion, solutions can be made up in 0.1% ethanol.
The solutions were dispensed in 20 ml volumes into 1 oz. sample cups and served to the subjects at room temperature. All samples were presented in randomized counterbalanced order to reduce response bias. Further, two sessions of testing may be used to check panel precision.
Subjects tasted each sample individually and rate sweetness intensity on the line scale prior to tasting the next sample. All samples were expectorated. Subjects may retaste the samples but can only use the volume of sample given. Subjects must rinse with water between samples. Eating an unsalted cracker between samples may be required depending on the samples tasted.
The scores for each sample were averaged across subjects and standard error was calculated. The dose-response curve was plotted graphically, and this may be used to ensure the panel is rating accurately; i.e., increasing the concentration of sucralose should correspond to increased average scores for sweetness. A 2-way ANOVA (factors being samples and panelists) and multiple comparison tests (such as Tukey's Honestly Significant Difference test) can be used to determine differences among samples and/or panelists. A 3-way ANOVA, with sessions as the third factor, can be used to determine if there is any difference in the ratings between sessions.

SMILES: Nc1nc(=O)[nH]c2sc3c(c12)CCOC3 [Example 146, 4-Amino-5,6-(5′,7′-dihydro-4′H-[2′,3′-c]pyrano)thieno[2,3-d]-pyrimidine-2(1H)-one]
- melting point: > 260 °C

SMILES: CCCNC(=O)C(C)(C)COc1cccc2c1C(N)=NS(=O)(=O)N2 [Example 215, 3-(4-Amino-2,2-dioxide-1H-benzo[c][1,2,6]thiadiazin-5-yloxy)-2′,2′-dimethyl-N-propylpropanamide]
- melting point: 225 to 226 °C

SMILES: NC1=NS(=O)(=O)Nc2cccc(OC3CCCC3)c21 [Example 169, 4-Amino-5-(cyclopentoxy)-1H-benzo[c][1,2,6]thiadiazine-2,2-dioxide]
- melting point: > 260 °C

SMILES: OC[C@H]1O[C@@](CO)(O[C@H]2O[C@H](CO)[C@@H](O)[C@H](O)[C@H]2O)[C@@H](O)[C@@H]1O [Sucrose, sucrose]
- Average sweetness score (line scale 0 to 15) ([1]; Table 5, 2% sucrose alone): 2.4
- Average sweetness score (line scale 0 to 15) ([1]; Table 7, 2% sucrose alone): 1.8
- Average sweetness score (line scale 0 to 15) ([1]; Table 8, 6% sucrose alone): 6.6
- Average sweetness score (line scale 0 to 15) ([1]; Table 8, 8% sucrose alone): 8.1
- Average sweetness score (line scale 0 to 15) ([1]; Table 8, 9% sucrose alone): 8.6
- Average sweetness score (line scale 0 to 15) ([1]; Table 8, 10% sucrose alone): 9.6
- Average sweetness score (line scale 0 to 15) ([1]; Table 9, 2% sucrose alone): 2.2
- Average sweetness score (line scale 0 to 15) ([1]; Table 9, 4% sucrose alone): 4.0
- Average sweetness score (line scale 0 to 15) ([1]; Table 9, 6% sucrose alone): 5.5
- Average sweetness score (line scale 0 to 15) ([1]; Table 10, 6% sucrose alone): 7.3
- Average sweetness score (line scale 0 to 15) ([1]; Table 10, 8% sucrose alone): 7.9
- Average sweetness score (line scale 0 to 15) ([1]; Table 10, 9% sucrose alone): 8.6
- Average sweetness score (line scale 0 to 15) ([1]; Table 10, 10% sucrose alone): 9.6
- Average sweetness score (line scale 0 to 15) ([1]; Table 11, 2% sucrose alone): 2.1
- Average sweetness score (line scale 0 to 15) ([1]; Table 11, 4% sucrose alone): 3.9
- Average sweetness score (line scale 0 to 15) ([1]; Table 11, 6% sucrose alone): 5.7
- Average sweetness score (line scale 0 to 15) ([1]; Table 12, 6% sucrose alone): 6.8
- Average sweetness score (line scale 0 to 15) ([1]; Table 12, 8% sucrose alone): 8.3
- Average sweetness score (line scale 0 to 15) ([1]; Table 12, 9% sucrose alone): 8.6
- Average sweetness score (line scale 0 to 15) ([1]; Table 12, 10% sucrose alone): 9.5
- Average sweetness score (line scale 0 to 15) ([1]; Table 13, 2% sucrose alone): 1.9
- Average sweetness score (line scale 0 to 15) ([1]; Table 13, 4% sucrose alone): 3.9
- Average sweetness score (line scale 0 to 15) ([1]; Table 13, 6% sucrose alone): 5.5
- Average sweetness score (line scale 0 to 15) ([1]; Table 14, 6% sucrose alone): 6.5
- Average sweetness score (line scale 0 to 15) ([1]; Table 14, 8% sucrose alone): 8.5
- Average sweetness score (line scale 0 to 15) ([1]; Table 14, 9% sucrose alone): 8.7
- Average sweetness score (line scale 0 to 15) ([1]; Table 14, 10% sucrose alone): 9.7
- Average sweetness score (line scale 0 to 15) ([1]; Table 15, 6% sucrose alone): 7.0
- Average sweetness score (line scale 0 to 15) ([1]; Table 15, 8% sucrose alone): 8.4
- Average sweetness score (line scale 0 to 15) ([1]; Table 15, 9% sucrose alone): 9.0
- Average sweetness score (line scale 0 to 15) ([1]; Table 15, 10% sucrose alone): 9.1
- Average sweetness score (line scale 0 to 15) ([1]; Table 16, 2% sucrose alone): 2.0
- Average sweetness score (line scale 0 to 15) ([1]; Table 16, 4% sucrose alone): 4.1
- Average sweetness score (line scale 0 to 15) ([1]; Table 16, 6% sucrose alone): 5.7
- Average sweetness score (line scale 0 to 15) ([1]; Table 18, 2% sucrose alone): 2.4
- Average sweetness score (line scale 0 to 15) ([1]; Table 18, 4% sucrose alone): 4.2
- Average sweetness score (line scale 0 to 15) ([1]; Table 18, 6% sucrose alone): 5.9
- Average sweetness score (line scale 0 to 15) ([1]; Table 19, 6% sucrose alone): 7.3
- Average sweetness score (line scale 0 to 15) ([1]; Table 19, 8% sucrose alone): 8.6
- Average sweetness score (line scale 0 to 15) ([1]; Table 19, 9% sucrose alone): 9.1
- Average sweetness score (line scale 0 to 15) ([1]; Table 19, 10% sucrose alone): 9.7
- Average sweetness score (line scale 0 to 15) ([1]; Table 20, 2% sucrose alone): 8.6
- Average sweetness score (line scale 0 to 15) ([1]; Table 20, 4% sucrose alone): 9.1
- Average sweetness score (line scale 0 to 15) ([1]; Table 20, 6% sucrose alone): 9.7
- Average sweetness score (line scale 0 to 15) ([1]; Table 21, 6% sucrose alone): 6.5
- Average sweetness score (line scale 0 to 15) ([1]; Table 21, 8% sucrose alone): 8.3
- Average sweetness score (line scale 0 to 15) ([1]; Table 21, 9% sucrose alone): 9.4
- Average sweetness score (line scale 0 to 15) ([1]; Table 21, 10% sucrose alone): 9.4
- Average sweetness score (line scale 0 to 15) ([1]; Table 22, 6% sucrose alone): 6.5
- Average sweetness score (line scale 0 to 15) ([1]; Table 22, 8% sucrose alone): 8.2
- Average sweetness score (line scale 0 to 15) ([1]; Table 22, 9% sucrose alone): 9.2
- Average sweetness score (line scale 0 to 15) ([1]; Table 22, 10% sucrose alone): 9.4
- Average sweetness score (line scale 0 to 15) ([1]; Table 23, 6% sucrose alone): 6.8
- Average sweetness score (line scale 0 to 15) ([1]; Table 23, 8% sucrose alone): 8.7
- Average sweetness score (line scale 0 to 15) ([1]; Table 23, 9% sucrose alone): 9.5
- Average sweetness score (line scale 0 to 15) ([1]; Table 23, 10% sucrose alone): 9.5
- Average sweetness score (line scale 0 to 15) ([1]; Table 24, 6% sucrose alone): 6.5
- Average sweetness score (line scale 0 to 15) ([1]; Table 24, 8% sucrose alone): 8.4
- Average sweetness score (line scale 0 to 15) ([1]; Table 24, 9% sucrose alone): 9.2
- Average sweetness score (line scale 0 to 15) ([1]; Table 24, 10% sucrose alone): 9.4
- Average sweetness score (line scale 0 to 15) ([1]; Table 25, 6% sucrose alone): 6.7
- Average sweetness score (line scale 0 to 15) ([1]; Table 25, 8% sucrose alone): 8.1
- Average sweetness score (line scale 0 to 15) ([1]; Table 25, 9% sucrose alone): 9.3
- Average sweetness score (line scale 0 to 15) ([1]; Table 25, 10% sucrose alone): 9.2
- Average Sweetness ([1]; Table 26, 6% Sucrose alone, n = 24): 6.2
- Average Sweetness ([1]; Table 26, 8% Sucrose alone, n = 24): 8.3
- Average Sweetness ([1]; Table 26, 9% Sucrose alone, n = 24): 9.3
- Average Sweetness ([1]; Table 26, 10% Sucrose alone, n = 24): 9.8
- Average Sweetness ([1]; Table 26, 12% Sucrose alone, n = 24): 11.1
- Average Sweetness ([1]; Table 27, 6% Sucrose alone, n = 30): 6.7
- Average Sweetness ([1]; Table 27, 8% Sucrose alone, n = 30): 8.3
- Average Sweetness ([1]; Table 27, 10% Sucrose alone, n = 30): 10.3
- Average Sweetness ([1]; Table 27, 12% Sucrose alone, n = 30): 11.2
- Average Sweetness ([1]; Table 30, 2% Sucrose alone, n = 30): 2.3
- Average Sweetness ([1]; Table 30, 4% Sucrose alone, n = 30): 4.2
- Average Sweetness ([1]; Table 30, 6% Sucrose alone, n = 30): 5.8
- Average Sweetness ([1]; Table 31, 6% Sucrose alone, n = 28): 6.8
- Average Sweetness ([1]; Table 31, 8% Sucrose alone, n = 28): 8.5
- Average Sweetness ([1]; Table 31, 9% Sucrose alone, n = 28): 8.6
- Average Sweetness ([1]; Table 31, 10% Sucrose alone, n = 28): 9.6
- Average Sweetness ([1]; Table 32, 2% Sucrose alone, n = 28): 2.3
- Average Sweetness ([1]; Table 32, 4% Sucrose alone, n = 28): 4.5
- Average Sweetness ([1]; Table 32, 6% Sucrose alone, n = 28): 5.8

SMILES: CC(C)(COc1cccc2c1C(N)=NS(=O)(=O)N2)NC(=O)c1ccccc1 [Example 216, N-(1-(4-amino-2,2-dioxide-1H-benzo[c][,6]thiadiazin-5-yloxy)-2′-methylpropan-2′-yl)benzamide]
- melting point: 235 to 236 °C

SMILES: OC[C@H]1O[C@H](O[C@]2(CCl)O[C@H](CCl)[C@@H](O)[C@@H]2O)[C@H](O)[C@@H](O)[C@H]1Cl [Sucralose, sucralose]
- Average sweetness score (line scale 0 to 15) ([1]; Table 1, 100 ppm sucralose alone): 6.3
- Average sweetness score (line scale 0 to 15) ([1]; Table 1, 200 ppm sucralose alone): 10.4
- Average sweetness score (line scale 0 to 15) ([1]; Table 1, 300 ppm sucralose alone): 11.5
- Average sweetness score (line scale 0 to 15) ([1]; Table 1, 400 ppm sucralose alone): 12.3
- Average sweetness score (line scale 0 to 15) ([1]; Table 3, 100 ppm sucralose alone): 7.4
- Average sweetness score (line scale 0 to 15) ([1]; Table 3, 200 ppm sucralose alone): 10.4
- Average sweetness score (line scale 0 to 15) ([1]; Table 3, 300 ppm sucralose alone): 10.5
- Average sweetness score (line scale 0 to 15) ([1]; Table 3, 400 ppm sucralose alone): 11.2
- Average sweetness score (line scale 0 to 15) ([1]; Table 3, 600 ppm sucralose alone): 13.0
- Average sweetness score (line scale 0 to 15) ([1]; Table 4, 100 ppm sucralose alone): 6.3
- Average sweetness score (line scale 0 to 15) ([1]; Table 4, 200 ppm sucralose alone): 9.5
- Average sweetness score (line scale 0 to 15) ([1]; Table 4, 300 ppm sucralose alone): 10.3
- Average sweetness score (line scale 0 to 15) ([1]; Table 4, 400 ppm sucralose alone): 12.1
- Average sweetness score (line scale 0 to 15) ([1]; Table 6, 100 ppm sucralose alone): 6.5
- Average sweetness score (line scale 0 to 15) ([1]; Table 6, 200 ppm sucralose alone): 9.1
- Average sweetness score (line scale 0 to 15) ([1]; Table 6, 300 ppm sucralose alone): 10.8
- Average sweetness score (line scale 0 to 15) ([1]; Table 6, 400 ppm sucralose alone): 11.2
- Average sweetness score (line scale 0 to 15) ([1]; Table 17, 100 ppm sucralose alone): 6.5
- Average sweetness score (line scale 0 to 15) ([1]; Table 17, 200 ppm sucralose alone): 9.0
- Average sweetness score (line scale 0 to 15) ([1]; Table 17, 300 ppm sucralose alone): 10.9
- Average sweetness score (line scale 0 to 15) ([1]; Table 17, 400 ppm sucralose alone): 12.3
- Average Sweetness ([1]; Table 28, 50 ppm sucralose alone, n = 28): 4.3
- Average Sweetness ([1]; Table 28, 100 ppm sucralose alone, n = 28): 6.2
- Average Sweetness ([1]; Table 28, 150 ppm sucralose alone, n = 28): 8.2
- Average Sweetness ([1]; Table 28, 200 ppm sucralose alone, n = 28): 8.9
- Average Sweetness ([1]; Table 28, 300 ppm sucralose alone, n = 28): 10.3

SMILES: CCc1sc2[nH]c(=O)nc(N)c2c1C [Example 7, 4-Amino-6-ethyl-5-methylthieno[2,3-d]pyrimidin-2(1H)-one]
- Average sweetness score (line scale 0 to 15) ([1]; Table 2, 100 μM compound alone in low sodium buffer): 0.1
